Experimental data from PMC7332481, “Ecotoxicity screening evaluation of selected pharmaceuticals and their transformation products towards various organisms” (Environmental Science and Pollution Research International, 2020).
Values after ≈ are worked out from the molar mass of the structure shown.

Experiments:
Raphidocelis subcapitata = assay: R. subcapitata reproduction (growth) inhibition test; assay type: cell-based; details: for inhibition at 100 µg/mL: read-out: Growth inhibition of R. subcapitata
Protocol: (§1) All tests were carried out in accordance with the OECD or ISO guidelines. In general the experimental part was divided into three main steps: (i) determination of the toxicity of the native forms of pharmaceuticals (their racemic mixtures), (ii) toxicity evaluation of the selected TPs of these pharmaceuticals, and (iii) preliminary toxicity assessment of the enantiomers of selected pharmaceuticals. For each assay, range-finding tests were conducted, in order to determine the range of concentrations for the definitive tests. The main tests were repeated three times in at least two parallel replicates, with a minimum of five concentrations for native forms of the selected pharmaceuticals (including their enantiomers). The exact number of replicates and concentrations tested was included in the description of each test. […] However, TPs were tested in a different manner; first, the tests were carried out at the limit concentration of 100 mg L^−1. […] Such approach was applied in order to observe the relative toxicity of the selected TP and its native form.
(§2) Dose-response curves were fitted using a linear logistic or logistic model (the model giving the best fit was chosen) (https://cran.r-project.org/web/packages/drfit/drfit.pdf). The mathematic formulas applied for this purpose are presented and described in the Supplementary Material. The EC50 values were given since log EC50 is a model parameter in the logistic as well as in linear logistic model.
Test organisms were provided from Algal Culture Collection (Universität Göttingen, Germany). […] The light-dark cycle was different from the OECD guidelines, and it was introduced to imitate natural growth conditions. In order to ensure that the algae are in the exponential growth phase when used to inoculate the test solutions, the stock culture was diluted three times a week. The test was carried out in 25 mL suspension cell culture flasks (Nunc) (working volume 10 mL). All operations were performed under sterile conditions. The initial cell concentration was 5 × 10^4 cells mL^−1. Eight different concentrations of every compound in three replicates and a minimum of six controls were used in each test. […] The test flasks were incubated on a shaker with a speed of approx. 75 rpm at the temperature and light conditions described above. Growth inhibition was calculated using the cell counts of the treated samples in relation to the untreated controls after 72 h of exposure. The cells were counted with the use of CASY TT Cell counter & analyzer.

Lemna minor = assay: L. minor growth inhibition test; details: for EC50 L. minor (with confidence interval 2.5–97.5%): growth rate inhibition by frond area, 7 days; for inhibition at 15 µg/mL / inhibition at 50 µg/mL: read-out: Growth inhibition of L. minor
Protocol: as §1, §2
One week before the assay, the inoculum cultures were prepared; eight healthy plants were placed into a new portion of the medium. Two days before the test, the plants were transferred to a fresh medium, in order to supplement nutrients and to eliminate plant metabolites. The experiments were performed in six-well plates under the conditions described above. The pH value of the Steinberg medium and all solutions was 5.5 (± 0.5). Every test included six different concentrations of compound and six controls in three replicates. The test started with one plant consisting of three fronds and the measured endpoint was the inhibition of growth rate determined by comparing the frond area (mm^2) for the treated plants and untreated controls.

Daphnia magna = assay: D. magna acute immobilization test; assay type: in vivo; details: for mortality at 50 µg/mL: concentration 50 mg L^−1
Protocol: as §1, §2
Five pre-fed test organisms were incubated with the studied compounds diluted in 10 mL of test media in glass test vessels at 20 °C (± 1 °C) in darkness for 48 h. Each test consisted of a control and five different concentrations of the studied compound in four parallel replicates. In order to achieve a full dose-response relationship, the concentration series covered the range of 0–100% immobilization. The number of immobilized or dead organisms was checked after 24 and 48 h. The negative effect of exposure to the tested compounds was expressed by the number of immobilized organisms compared to the controls.

Vibrio fischeri = assay: microbe, parasite or virus in culture; assay type: cell-based; details: for inhibition at 10 µg/mL: concentration 10 mg L^−1
Protocol: (§3) Stock solutions and dilutions were prepared in 2% NaCl in 0.02 M phosphate buffer, pH 7. The freeze-dried bacteria were rehydrated prior to testing in a reactivation solution. Culture suspensions and diluted samples were pre-incubated at 15 °C for 15 min. After the initial luminescence was measured, 0.5 mL of the culture suspension was mixed with the same volume of a diluted sample. The final bioluminescence was measured after 30 min. Incubation was kept at 15 °C (LUMIStox 300 meter, Dr. Lange GmbH, Berlin, Germany). The relative toxicity of the samples was expressed as a percentage of luminescence inhibition compared to the controls.
as §3, with “m,” for “meter,”

Arthrobacter globiformis = assay: A. globiformis dehydrogenase inhibition test (version without soil)
Protocol: as §1
The test strain was obtained from the German Collection of Microorganisms (DSMZ). A version of the test without soil was performed. Bacteria was grown in a sterile medium containing 10 g L^−1 peptone from casein, 5 g L^−1 yeast extract, 5 g L^−1 glucose, and 5 g L^−1 NaCl. For the test, the medium was diluted in a ratio of 1:3 in water. The inoculum was the bacteria in a log-growth phase. Cell density was adjusted to 1 × 10^8 cells mL^−1, which corresponds to an optical density (OD600nm) of 0.4. The test was performed in 24-well microplates. Each well contained 1 mL of solution of the tested compound in water and 1 mL of bacterial inoculum. Next, the plates were incubated for 2 h at 30 °C on a horizontal shaker with a speed of 100 rpm. To each well, a portion of 0.6 mL of the redox active dye resazurine (45 mg L^−1) dissolved in buffer was added. The microplates were further incubated for 1 h (30 °C, 100 rpm). To stop the reduction process, the plates were centrifuged at 3600g for 10 min. Aliquots (300 μl) of supernatant from each well were immediately transferred to the wells of a 96-well microplate in triplicates. Finally, the dehydrogenase activity was determined by measuring the formation of resorufin from resazurine using a fluorimeter ([…]). Dehydrogenase inhibition was calculated using Eq. 1.
where FBTS is the measured fluorescence of the blank (medium) with the tested substance, FTS is the measured fluorescence of the sample, FBNC is the measured fluorescence of the blank, and FNC is the measured fluorescence of the negative control (with bacteria).

[1] = growth inhibition by cell counts, 72 h
[2] = luminescence inhibition, 30 min, 15 °C
[3] = Raphidocelis subcapitata, concentration 100 mg L^−1
[4] = Aliivibrio fischeri, read-out: Luminescence inhibition

Structure (SMILES) | EC50 R. subcapitata (with confidence interval 2.5–97.5%) (Raphidocelis subcapitata; [1]) | EC50 L. minor (with confidence interval 2.5–97.5%) (Lemna minor) | EC50 D. magna (with confidence interval 2.5–97.5%) (Daphnia magna; immobilization, 48 h) | inhibition at 100 µg/mL (Raphidocelis subcapitata; [3]) [%] | inhibition at 15 µg/mL (Lemna minor; Lemna minor) [%] | inhibition at 10 µg/mL (Vibrio fischeri; [4]) [%] | also measured
CC(C)Cc1ccc([C@@H](C)C(=O)O)cc1 (single isomer, unassigned) [IBU Isomer R, R-ibuprofen] | 11.65 (10.21–13.26) mg L^−1 | 12.36 (10.80–14.07) mg L^−1 | 65.83 (59.54–72.54) mg L^−1 | – | – | – | –
COc1ccc2cc([C@@H](C)C(=O)O)ccc2c1 (single isomer, unassigned) [NAP Isomer R, R-naproxen] | 21.08 (19.64–22.59) mg L^−1 | 22.37 (20.76–24.04) mg L^−1 | 97.35 (91.90–104.95) mg L^−1 | – | – | – | EC50 V. fischeri (with confidence interval 2.5–97.5%) (Vibrio fischeri; [2]): 7.53 (7.11–7.99) mg L^−1
COc1ccc2cc([C@H](C)C(=O)O)ccc2c1 (single isomer, unassigned) [NAP Isomer S, S-naproxen] | 27.80 (25.67–30.05) mg L^−1 | 29.14 (27.19–31.40) mg L^−1 | 68.76 (54.64–90.98) mg L^−1 | – | – | – | EC50 V. fischeri (with confidence interval 2.5–97.5%) (Vibrio fischeri; [2]): 20.60 (19.50–21.75) mg L^−1
CC(C(=O)O)c1ccc(CC(C)(C)O)cc1 (stereo not drawn) [2-OH-IBU, 2-Hydroxyibuprofen] | – | – | – | 16 | 11 | 4 | mortality at 50 µg/mL (Daphnia magna; Daphnia magna): 0%
O=C(O)Cc1ccccc1Nc1c(Cl)cc(O)cc1Cl [4-OH-DIC, 4☒Hydroxydiclofenac] | – | – | – | – | 0 | 38 | inhibition at 100 µg/mL (Arthrobacter globiformis; read-out: inhibition of bacterial growth (A. globiformis)): 14%; inhibition at 50 µg/mL (Raphidocelis subcapitata; Raphidocelis subcapitata, concentration 50 mg L^−1): 45%; mortality at 60 µg/mL (Daphnia magna; Daphnia magna, concentration 60 mg L^−1): 8%
NC(=O)N1c2ccccc2CC(O)c2ccccc21 (stereo not drawn) [10-OH-CRB, 10,11-Dihydro-10-hydroxycarbamazepine] | – | – | – | 15 | – | – | inhibition at 50 µg/mL (Lemna minor; Lemna minor): 11%
CC(Cc1ccc(C(C)C(=O)O)cc1)C(=O)O (stereo not drawn) [CBX-IBU, Carboxyibuprofen] | – | – | – | 14 | 6 | 2 | mortality at 50 µg/mL (Daphnia magna; Daphnia magna): 8%
NC(=O)N1c2ccccc2C=Cc2ccccc21 [CRB, Carbamazepine] | – | – | – | 49 | – | – | EC50 (Arthrobacter globiformis; read-out: EC50 A. globiformis): > 100 mg/L; EC50 (Raphidocelis subcapitata; Raphidocelis subcapitata, 72 h, growth inhibition by cell counts, 72 h, read-out: EC50 R. subcapitata (with confidence interval 2.5–97.5%)): > 100 mg/L; Growth inhibition of R. subcapitata (Raphidocelis subcapitata; concentration 100 mg L^−1): 48%; EC50 (Lemna minor; Lemna minor, 168 h, read-out: EC50 L. minor (with confidence interval 2.5–97.5%), growth rate inhibition by frond area, 7 days): 50.2 mg/L (≈ 212 µM); inhibition at 50 µg/mL (Lemna minor; Lemna minor): 49%; EC50 (Vibrio fischeri; Aliivibrio fischeri, 0.5 h, luminescence inhibition, 30 min, 15 °C, read-out: EC50 V. fischeri (with confidence interval 2.5–97.5%)): > 100 mg/L; inhibition at 100 µg/mL (Vibrio fischeri; Aliivibrio fischeri, concentration 100 mg L^−1, read-out: Luminescence inhibition): 42%; mortality at 100 µg/mL (Daphnia magna; Daphnia magna, concentration 100 mg L^−1): 24%; EC50 (Daphnia magna; Daphnia magna, immobilization, 48 h, read-out: EC50 D. magna (with confidence interval 2.5–97.5%)): > 100 mg/L
